Data taken from patent US7186840B2, “Quinoline derivatives as anti-inflammatory agents” (Roche Palo Alto LLC, priority 2000, dated 2007).

Tests used:
COX I = biological target: T1, COX I (Homo sapiens, UniProt P23219); assay: Inhibition of COX I in vitro (radiometric assay); format: biochemical; settings: partially purified enzyme, 10 min preincubation, 20 micromolar [14C]arachidonic acid
T1 construct: made in house
Description: (§1) The COX I and COX II inhibitory activity of compounds of this invention in vitro was determined using partially purified COX I and COX II enzymes, prepared as described in J. Barnett et. al., Biochim Biophys. Acta, 1209, 130–139 (1994).
(§2) COX I and COX II samples were diluted with Tris-HCl buffer (50 mM Tris-HCl, pH 7.9) containing 2 mM EDTA and 10% glycerol and reconstituted by incubating first with 2 mM phenol for 5 minutes and then with 1 micromolar hematin for an additional 5 minutes. 125 μl of the reconstituted COX I or COX II enzyme were preincubated for 10 minutes at room temperature in a shaking water bath with the compounds of the invention dissolved in 2–15 μl of DMSO or the carrier vehicles (control samples). The enzyme reaction was initiated by adding 25 μl of 1-[14 C]arachidonic acid (80,000–100,000 cpm/tube; 20 micromolar final concentration) and the reaction was allowed to continue for an additional 45 seconds. The reaction was terminated by adding 100 μl of 2N HCl and 750 μl water. An aliquot (950 μl) of the reaction mixture was loaded onto a 1 mL C18 Sep-Pak column (J. T. Baker, Phillipsburg, N.J.) which had been previously washed with 2–3 mL methanol and equilibrated with 5–6 mL distilled water. Oxygenated products were quantitatively eluted with 3 mL of acetonitrile/water/acetic acid (50:50:0.1, v/v) and the radioactivity in the eluate determined in a scintillation counter.
(§3) The COX inhibitory activities (expressed as IC50, the concentration causing 50% inhibition of the COX enzyme being assayed) of some exemplary compounds of the invention were: […]

COX II = biological target: T2, COX II (Homo sapiens, UniProt P35354); assay: Inhibition of COX II in vitro (radiometric assay); format: biochemical; settings: partially purified enzyme, 10 min preincubation, 20 micromolar [14C]arachidonic acid
T2 construct: made in house
T2 sequence (P35354 18-604): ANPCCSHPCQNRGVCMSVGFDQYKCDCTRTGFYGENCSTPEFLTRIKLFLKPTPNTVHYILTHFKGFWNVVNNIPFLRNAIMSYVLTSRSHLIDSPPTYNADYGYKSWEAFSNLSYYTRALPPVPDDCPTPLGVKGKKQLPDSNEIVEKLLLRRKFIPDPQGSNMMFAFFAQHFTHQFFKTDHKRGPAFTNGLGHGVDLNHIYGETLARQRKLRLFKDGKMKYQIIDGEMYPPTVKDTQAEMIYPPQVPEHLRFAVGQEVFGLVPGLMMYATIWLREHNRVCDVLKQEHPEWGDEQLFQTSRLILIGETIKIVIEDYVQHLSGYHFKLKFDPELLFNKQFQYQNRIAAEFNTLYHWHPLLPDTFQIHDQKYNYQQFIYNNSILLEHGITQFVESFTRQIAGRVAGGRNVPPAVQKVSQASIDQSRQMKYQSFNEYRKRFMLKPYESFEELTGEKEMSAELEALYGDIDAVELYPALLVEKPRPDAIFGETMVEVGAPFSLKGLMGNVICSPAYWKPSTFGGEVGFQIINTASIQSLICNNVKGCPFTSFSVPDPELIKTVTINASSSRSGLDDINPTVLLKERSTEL
Description: as §1, §2, §3

T1 sequence (P23219 24-599): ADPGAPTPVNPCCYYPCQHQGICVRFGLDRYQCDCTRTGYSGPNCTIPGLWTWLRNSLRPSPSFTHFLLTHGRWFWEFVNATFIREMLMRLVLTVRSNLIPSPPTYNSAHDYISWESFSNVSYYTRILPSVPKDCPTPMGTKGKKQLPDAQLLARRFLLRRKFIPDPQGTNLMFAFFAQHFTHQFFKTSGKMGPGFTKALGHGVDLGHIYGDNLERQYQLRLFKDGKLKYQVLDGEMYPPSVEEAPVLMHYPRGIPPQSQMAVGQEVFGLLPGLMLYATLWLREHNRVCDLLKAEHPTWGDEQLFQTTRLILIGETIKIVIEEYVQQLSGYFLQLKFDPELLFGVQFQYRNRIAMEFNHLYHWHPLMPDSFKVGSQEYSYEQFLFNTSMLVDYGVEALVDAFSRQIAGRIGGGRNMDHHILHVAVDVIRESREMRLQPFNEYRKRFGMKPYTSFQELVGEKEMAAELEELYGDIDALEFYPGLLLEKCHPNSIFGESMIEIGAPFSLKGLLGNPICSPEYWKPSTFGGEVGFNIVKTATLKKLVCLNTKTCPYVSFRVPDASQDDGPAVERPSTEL

| Structure (SMILES) | IC50 (COX I) | IC50 (COX II) |
| --- | --- | --- |
| COc1ccc2nc(S(C)(=O)=O)ccc2c1Sc1ccc(F)cc1F [Cpd 101, 5-(2,4-Difluoro-phenylsulfanyl)-2-methanesulfonyl-6-methoxy-quinoline] | > 40 µM | < 200 nM |
| COc1ccc2nc(S(C)(=O)=O)ccc2c1Sc1ccccc1Cl [Cpd 104, 5-(2-chloro-phenylsulfanyl)-2-methanesulfonyl-6-methoxy-quinoline] | > 40 µM | < 200 nM |
| COc1ccc2nc(S(C)(=O)=O)ccc2c1Sc1ccc(F)cc1Cl [Cpd 105, 5-(2-chloro-4-fluoro-phenylsulfanyl)-2-methanesulfonyl-6-methoxy-quinoline] | > 40 µM | < 200 nM |
| COc1ccc2nc(S(C)(=O)=O)ccc2c1Sc1ccc(Br)cc1 [Cpd 106, 5-(4-bromo-phenylsulfanyl)-2-methanesulfonyl-6-methoxy-quinoline] | > 40 µM | < 300 nM |
| COc1ccc2nc(S(C)(=O)=O)ccc2c1Sc1ccc(Cl)cc1Cl [Cpd 107, 5-(2,4-dichloro-phenylsulfanyl)-2-methanesulfonyl-6-methoxy-quinoline] | > 40 µM | < 300 nM |
